Where “and” joins values, the source holds several entries; their conditions need not be identical. Equal entries are not always repeated. Where two headings read alike, the source gives them in different places.
What was measured:
human D4 receptor [1] = target: T1, human D4 receptor (Homo sapiens, UniProt P21917); set-up: expressed in transfected cells; conditions: CHO cells, read-out: EC50 inhibition of forskolin-stimulated cAMP accumulation; cited from earlier work
T1 sequence (P21917 1-419): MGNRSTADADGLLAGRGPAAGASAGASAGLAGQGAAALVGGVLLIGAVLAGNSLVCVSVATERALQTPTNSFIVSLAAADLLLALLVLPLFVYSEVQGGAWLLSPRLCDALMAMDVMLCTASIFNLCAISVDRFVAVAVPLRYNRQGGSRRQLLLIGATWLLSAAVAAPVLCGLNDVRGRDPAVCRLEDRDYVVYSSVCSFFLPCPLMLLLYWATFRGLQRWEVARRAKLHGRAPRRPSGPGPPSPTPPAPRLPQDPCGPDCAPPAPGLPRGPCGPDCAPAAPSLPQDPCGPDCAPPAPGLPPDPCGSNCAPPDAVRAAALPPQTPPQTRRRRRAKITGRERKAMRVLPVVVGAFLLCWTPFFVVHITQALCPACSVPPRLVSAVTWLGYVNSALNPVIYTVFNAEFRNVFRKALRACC

dopamine D4 receptor [2] = target: T2, dopamine D4 receptor (Homo sapiens, UniProt P21917); assay: Dopamine D4 binding assay ([3H]-spiperone, membranes of transfected CHO cells, run by Cerep); set-up: host or cells: CHO cells (membranes); conditions: recombinant human D4, [3H]-spiperone 0.5 nM
T2 sequence (P21917 1-419): T1 sequence (P21917 1-419)
Experimental: (§1) The dopamine D2 and D4 binding assays, used to determine binding affinities (Ki) illustrated in Table 1, were conducted according to standard procedures known to those in the art and are summarized herein.
(§2) Briefly, receptor binding assays at the dopamine D2 and D4 receptors were carried out in membranes from cell lines expressing the recombinant human subtypes. […] Specific binding was defined as the difference between total binding and nonspecific binding. Ki values were determined using the Cheng-Prusoff equation and are illustrated in Table 1.

[3] = test system: emesis in male Fitch ferrets; assay: Emesis model in ferrets; format: in vivo; conditions: ferret, subcutaneous; for Incidence (%) of emesis: 90 minutes observation; for induction of emesis (in words): all doses tested
Experimental: Male Fitch ferrets (body weights 1.0-1.5 kg) were fasted overnight before experimentation. Animals were placed individually in observation cages following subcutaneous administration of drug and observed for drug-induced nausea and emesis for a period of 90 minutes following drug injection. Nausea was characterized by behaviors such as licking, gagging, backing, head burying, and intense abdominal grooming. Emesis was usually preceded by these behaviors and was characterized by rhythmic abdominal contractions which were associated with vomiting or retching movement. The number of ferrets induced to emesis was recorded and expressed as incidence (%) in Tables 5-7.

[4] = test system: penile erection in Wistar rats; assay: Rat penile erection model; format: in vivo; conditions: subcutaneous; for Incidence (%) of penile erections: 60 minutes observation; for facilitation of penile erections in rats (in words, with effective dose range): versus vehicle
Experimental: Wistar rats were used as a primary animal model to study penile erection in vivo. All experiments were carried out between 9:00 AM and 3:00 PM in a diffusely illuminated testing room with a red light. The rats were weighed and allowed to adapt to the testing room for 60 minutes before the beginning of experiments. Rats were placed in individual transparent cages (20×30×30 cm) after subcutaneous drug injection. The number of penile erections was recorded by direct observation for a period of 60 minutes after drug dosing.

human D4 receptor [5] = target: T1, human D4 receptor; assay: FLIPR calcium assay in HEK293 cells expressing human D4 receptor co-transfected with Gqo5 chimera; format: cell-based; set-up: expressed in transfected cells; host or cells: HEK293 cells, stably transfected, with Gqo5 chimera
Experimental: The FLIPR assay is a functional assay that can be conducted in HEK293 cells expressing the human D4 receptor, co-transfected with the Gqo5 protein chimera. Expression of the G-protein chimera allows for the mobilization of intracellular calcium after activation of the D4 receptor. Cells are prepared by plating the stably transfected D4-HEK293 cells into each well of 96 well plates. Cells are cultured until they reach confluence (approximately 48 hours). Media is removed from the plate and media containing the fluorescent calcium detecting dye Fluo-4 is added. Cells are incubated at room temperature for one hour. Cells are then washed three times with phosphate buffered saline and 150 μl PBS is added. Compounds to be tested are diluted in a second 96-well plate. The plate containing the cells is placed in fluorescent plate reader (FLIPR) and the reaction is begun by adding 50 μl of compound solution to all the wells simultaneously. Fluorescent signal is measured for 60 seconds sampling at 1 second intervals. The signal derived from 10 μM dopamine is used as 100% and a compound dose-response curve is normalized to determine the percent efficacy relative to dopamine. Dose response curves are analyzed to determine EC50 (nM).

dopamine D2 receptor = target: T3, dopamine D2 receptor (Homo sapiens, UniProt P14416); assay: Dopamine D2 binding assay ([3H]-spiperone, membranes of transfected A9L cells, run by Cerep); conditions: recombinant human D2, [3H]-spiperone 0.3 nM
T3 construct: host or cells: A9L cells (membranes)
Experimental: as §1, §2

dopamine D4 receptor [6] = target: T2, dopamine D4 receptor; conditions: cited literature; cited from earlier work

T3 sequence (P14416 whole entry): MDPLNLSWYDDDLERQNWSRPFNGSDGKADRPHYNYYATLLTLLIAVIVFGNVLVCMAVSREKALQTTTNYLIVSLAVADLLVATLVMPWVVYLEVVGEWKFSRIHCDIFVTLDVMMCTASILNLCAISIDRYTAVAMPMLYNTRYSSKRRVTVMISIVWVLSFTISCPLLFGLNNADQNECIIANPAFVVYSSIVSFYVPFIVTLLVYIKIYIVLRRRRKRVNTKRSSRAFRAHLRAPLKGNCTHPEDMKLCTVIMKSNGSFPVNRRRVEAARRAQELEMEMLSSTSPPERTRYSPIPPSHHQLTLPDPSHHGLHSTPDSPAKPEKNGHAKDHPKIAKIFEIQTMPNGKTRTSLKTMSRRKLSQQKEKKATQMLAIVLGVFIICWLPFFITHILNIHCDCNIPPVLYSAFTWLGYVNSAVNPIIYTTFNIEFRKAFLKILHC

SMILES	Incidence (%) of emesis ([3]; 0.1 μmol/kg) [%]	Incidence (%) of emesis ([3]; 0.3 μmol/kg)	Incidence (%) of emesis ([3]; 1.0 μmol/kg) [%]	Incidence (%) of emesis ([3]; 3.0 μmol/kg) [%]	induction of emesis (in words) [3]	Incidence (%) of penile erections ([4]; 0.3 μmol/kg) [%]	Incidence (%) of penile erections ([4]; 1.0 μmol/kg) [%]	facilitation of penile erections in rats (in words, with effective dose range) [4]	Ki (dopamine D2 receptor) [nM]	Incidence (%) of penile erections ([4]; 0.03 μmol/kg) [%]	Incidence (%) of penile erections ([4]; 0.1 μmol/kg)	other results
Fc1ccc2[nH]c(CN3CCN(c4ccccn4)CC3)cc2c1 [5-fluoro-2-{[4-(2-pyridinyl)-1-piperazinyl]methyl}-1H-indole]	0	0%	0	0	did not induce emesis at any dose	60	90	significant facilitation of penile erections in rats for doses 1.0 μmol/kg and 3.0 μmol/kg	> 1000	–	–	EC50 (human D4 receptor [1]): 5.8 nM; Ki (dopamine D4 receptor [2]): 2.6 nM; Incidence (%) of penile erections ([4]; 3.0 μmol/kg): 90%; EC50 (human D4 receptor [5]; D4-HEK293 cells, Gqo5): 32 nM; Emax (human D4 receptor [5]; HEK293, relative to 10 μM dopamine = 100%, read-out: Maximum Response FLIPR): 46%; agonism at D4 receptor in FLIPR assay (in words) (human D4 receptor [5]; Table A data): agonists; Ki (dopamine D4 receptor [6]): 6 nM; selectivity for dopamine D4 receptor compared to D2 receptor (literature) (dopamine D4 receptor [6]): > 100 fold
CN1CCc2cccc3c2C1Cc1ccc(O)c(O)c1-3 (stereo not shown) [Apomorphine, 5,6,6a,7-tetrahydro-6-methyl-4H-dibenzo[de,g]quinoline-10,11-diol]	32	83% and 82%	48	32	induced emesis at all doses	66	25	significant facilitation of penile erections in rats for doses 0.01 μmol/kg to 0.3 μmol/kg	–	69	86% and 90% and 92%	Incidence (%) of emesis ([3]; 0.3 μmol/kg, listed as apomorphine): 83%; Incidence (%) of emesis ([3]; 10.0 μmol/kg): 32%; Incidence (%) of penile erections ([4]; 0.003 μmol/kg): 28%; Incidence (%) of penile erections ([4]; 0.01 μmol/kg): 56%; Incidence (%) of penile erections ([4]; 0.1 μmol/kg, listed as apomorphine): 86% and 90%
Cc1cccc(C(=O)NCN2CCN(c3ccccc3C#N)CC2)c1 [N-{[4-(2-cyanophenyl)-1-piperazinyl]methyl}-3-methylbenzamide]	0	0%	0	0	did not induce emesis at any dose	79	68	significant facilitation of penile erections in rats for doses 0.1 μmol/kg to 1.0 μmol/kg	> 1000	42	71%	–
